The values below come from patent US5194605A, “Cyclic renin inhibitors containing 2-substituted (3S,4S)-4-amino-5-cyclohexyl-3-hydroxy pentanoic acid, 2-substituted (3S,4S)-5-cyclohexyl-3,4-di-hydroxy pentanoic acid or 2-substituted (4S,5S)-5-amino-6-cyclohexyl-4-hydroxyhexanoic acid or its analogs” (Merck & Co., Inc., priority 1991, dated 1993).

The conditions of series [1]: amide bond, DPPA, Et3N, DMF, 1.75 mM, 4.0 °C.
The subject of series [2] is conscious sodium-deficient Rhesus monkeys. Nature of the series: intravenous evaluation of renin inhibitors in conscious sodium-deficient Rhesus monkeys (blood pressure lowering). The class given is in vivo, Rhesus monkey. The settings on record: i.v. bolus, mean arterial pressure. An excerpt: The following methods were used for in vivo evaluation of the renin inhibitors of Formula I: Intravenous evaluation of renin inhibitors in concious sodium-deficient Rhesus monkeys: Rhesus monkeys, male and female, weighing 2.6-4.5 Kg, were surgically prepared with chronic arterial and venous catheters and vascular access ports for direct monitoring of mean arterial pressure (MAP) and heart rate (HR). The animals were maintained on a low sodium diet (1.2 mmol Na/day) plus friut for a week, and administered LASIX (furosemide) at 2.5 mg/Kg, intramuscularly the evening prior to the experiment. […] The inhibitors were administered by bolus injection using 0.5% acetic acid-5% dextrose in water as the vehicle (0.4 ml/Kg), and MAP and HR were measured. […] PRA was determined as described above. […] A projected ED50 dose for each inhibitor was calculated using the following furmula: ED50 (Test Inhibitor, umoles/Kg)=ED50 (SCRIP)×[IC50 (Test Inhibitor)/IC50 (SCRIP)], where the IC50 values were determined against human plasma renin. […] Percent inhibition of monkey PRA, changes in MAP and HR were calculated and plotted against time. […] The inhibitors were administered orally as a solution (2.5 ml/Kg) in 0.1M citric acid, and MAP and HR were measured over time. […] Percent inhibition of primate PRA and peak changes in MAP and HR were calculated. […]

Like-named read-outs stand apart in the source and are kept apart here. Square brackets hold non-standard residues; d marks the D form. Peptide text beside a SMILES is read from it. * marks the point of attachment. Sta = CC(C)C[C@H](N)[C@@H](O)CC(=O)O; Isovaleryl = CC(C)CC(=O)*

In series [1] (from CC[C@H](C)CNC(=O)[C@@H](CCCN)[C@H](O)[C@H](CC1CCCCC1)NC(=O)[C@H](CCC(=O)O)NC(=O)OC(C)(C)C, 145.0 h), `CC[C@H](C)CNC(=O)[C@H]1CCCNC(=O)CC[C@H](NC(=O)OC(C)(C)C)C(=O)N[C@@H](CC2CCCCC2)[C@H]1O` came in with a ring closure, yield of all isomers of 18%.
The compound `CC[C@H](C)CNC(=O)[C@H]1CCCCNC(=O)CC[C@H](NC(=O)OC(C)(C)C)C(=O)N[C@@H](CC2CCCCC2)[C@H]1O` displayed a ring closure, yield of all isomers in series [1] (from CC[C@H](C)CNC(=O)[C@@H](CCCCN)[C@H](O)[C@H](CC1CCCCC1)NC(=O)[C@H](CCC(=O)O)NC(=O)OC(C)(C)C, 120.3 h, 2 steps) of 62%.
On to `CC(C)CC(=O)N[C@@H](Cc1cnc[nH]1)C(=O)N1CCC[C@H]1C(=O)N[C@@H](Cc1ccccc1)C(=O)N[C@@H](Cc1cnc[nH]1)C(=O)N[C@@H](CC(C)C)[C@@H](O)CC(=O)N[C@@H](CC(C)C)C(=O)N[C@@H](Cc1ccccc1)C(N)=O` [SCRIP, Iva-His-Pro-Phe-His-Sta-Leu-Phe-NH2] (Isovaleryl-HPFH[Sta]LF-NH2), for which, in series [2], the “ED50 (i.v. dose required to lower blood pressure by 50% of the maximal response)” value amounted to 0.039 µmol/kg.
Regarding `COC(=O)[C@H]1CCCCNC(=O)CC[C@H](NC(=O)OC(C)(C)C)C(=O)N[C@@H](CC2CCCCC2)[C@H]1O`, the ring closure, yield of all isomers in series [1] (from COC(=O)[C@@H](CCCCN)[C@H](O)[C@H](CC1CCCCC1)NC(=O)[C@H](CCC(=O)O)NC(=O)OC(C)(C)C, 120.3 h) worked out at 62%.
